Experimental data reported in the supplement of paper PMC10733146.

How the values were obtained:
Assay in all cases: viability relative to DMSO control (fraction); higher = less drug effect (more viable cells)
Details in all cases: 48 h
[1] = tested on: primary ALL patient cells (S088)
In short: (§1)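 Viability was measured as CellTiter-Glo luminescence relative to the median of 16 inner DMSO wells. Primary mononuclear tumour cells, fresh or cryopreserved, were Ficoll-isolated from blood or bone marrow or taken from processed lymph node. They were seeded at 4 × 10^4 cells per well into 384-well plates holding pre-plated compounds at five concentrations, one well each, and kept in RPMI-1640 with penicillin/streptomycin, L-glutamine and human serum at 37 °C and 5% CO2 for 48 h.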

[2] = tested on: primary MCL patient cells (S063)
In short: as §1

[3] = tested on: primary DLBCL patient cells (S082)
In short: as §1

[4] = tested on: primary AML patient cells (S021)
In short: as §1

[5] = tested on: primary DLBCL patient cells (S049)
In short: as §1

[6] = tested on: primary AML patient cells (S060)
In short: as §1

[7] = tested on: primary AML patient cells (S055)
In short: as §1

[8] = tested on: primary AML patient cells (S006)
In short: as §1

[9] = tested on: primary AML patient cells (S011)
In short: as §1

[10] = tested on: primary MCL patient cells (S041)
In short: as §1

[11] = tested on: primary B-PLL patient cells (S016)
In short: as §1

[12] = tested on: primary FL patient cells (S087)
In short: as §1

[13] = tested on: primary T-PLL patient cells (S008)
In short: as §1

[14] = tested on: primary AML patient cells (S081)
In short: as §1

[15] = tested on: primary DLBCL patient cells (S076)
In short: as §1

[16] = tested on: primary T-NHL patient cells (S058)
In short: as §1

[17] = tested on: primary AML patient cells (S009)
In short: as §1

[18] = tested on: primary AML patient cells (S007)
In short: as §1

N#CC[C@H](C1CCCC1)n1cc(-c2ncnc3[nH]ccc23)cn1 [Ruxolitinib]
viability ([1]; 0.024 µM): 0.974
viability ([1]; 0.12 µM): 0.912
viability ([1]; 0.6 µM): 0.994
viability ([1]; 3 µM): 0.986
viability ([1]; 15 µM): 0.94
viability ([2]; 0.024 µM): 1.02
viability ([2]; 0.12 µM): 0.939
viability ([2]; 0.6 µM): 0.975
viability ([2]; 3 µM): 0.932
viability ([2]; 15 µM): 0.875
viability ([3]; 0.024 µM): 1.01
viability ([3]; 0.12 µM): 0.904
viability ([3]; 0.6 µM): 1.03
viability ([3]; 3 µM): 1.04
viability ([3]; 15 µM): 0.913
viability ([4]; 0.024 µM): 0.919
viability ([4]; 0.12 µM): 0.801
viability ([4]; 0.6 µM): 0.844
viability ([4]; 3 µM): 0.779
viability ([4]; 15 µM): 0.723
viability ([5]; 0.024 µM): 1.03
viability ([5]; 0.12 µM): 0.91
viability ([5]; 0.6 µM): 0.994
viability ([5]; 3 µM): 0.981
viability ([5]; 15 µM): 1
viability ([6]; 0.024 µM): 0.992
viability ([6]; 0.12 µM): 0.932
viability ([6]; 0.6 µM): 0.924
viability ([6]; 3 µM): 0.919
viability ([6]; 15 µM): 0.896
viability ([7]; 0.024 µM): 1.01
viability ([7]; 0.12 µM): 0.961
viability ([7]; 0.6 µM): 1
viability ([7]; 3 µM): 1.03
viability ([7]; 15 µM): 1.05
viability ([8]; 0.024 µM): 1.04
viability ([8]; 0.12 µM): 0.921
viability ([8]; 0.6 µM): 0.963
viability ([8]; 3 µM): 0.904
viability ([8]; 15 µM): 0.656
viability ([9]; 0.024 µM): 1.26
viability ([9]; 0.12 µM): 0.955
viability ([9]; 0.6 µM): 1.06
viability ([9]; 3 µM): 0.919
viability ([9]; 15 µM): 0.743
viability ([10]; 0.024 µM): 1.02
viability ([10]; 0.12 µM): 0.972
viability ([10]; 0.6 µM): 0.997
viability ([10]; 3 µM): 1.01
viability ([10]; 15 µM): 0.952
viability ([11]; 0.024 µM): 1.16
viability ([11]; 0.12 µM): 0.98
viability ([11]; 0.6 µM): 1.08
viability ([11]; 3 µM): 0.965
viability ([11]; 15 µM): 0.894
viability ([12]; 0.024 µM): 1.02
viability ([12]; 0.12 µM): 0.929
viability ([12]; 0.6 µM): 0.942
viability ([12]; 3 µM): 0.962
viability ([12]; 15 µM): 0.871
viability ([13]; 0.024 µM): 0.966
viability ([13]; 0.12 µM): 1.01
viability ([13]; 0.6 µM): 0.97
viability ([13]; 3 µM): 1.09
viability ([13]; 15 µM): 0.952
viability ([14]; 0.024 µM): 1.02
viability ([14]; 0.12 µM): 0.9
viability ([14]; 0.6 µM): 0.951
viability ([14]; 3 µM): 0.854
viability ([14]; 15 µM): 0.817
viability ([15]; 0.024 µM): 1.05
viability ([15]; 0.12 µM): 0.823
viability ([15]; 0.6 µM): 0.82
viability ([15]; 3 µM): 0.702
viability ([15]; 15 µM): 0.719
viability ([16]; 0.024 µM): 0.983
viability ([16]; 0.12 µM): 0.887
viability ([16]; 0.6 µM): 0.924
viability ([16]; 3 µM): 0.904
viability ([16]; 15 µM): 0.8
viability ([17]; 0.024 µM): 1.09
viability ([17]; 0.12 µM): 1.01
viability ([17]; 0.6 µM): 0.98
viability ([17]; 3 µM): 1.02
viability ([17]; 15 µM): 0.928

C/C=C1\NC(=O)[C@H]2CSSCC/C=C/[C@H](CC(=O)N[C@H](C(C)C)C(=O)N2)OC(=O)[C@H](C(C)C)NC1=O [Romidepsin]
viability ([1]; 0.00032 µM): 0.851
viability ([1]; 0.0016 µM): 0.577
viability ([1]; 0.008 µM): 0.123
viability ([1]; 0.04 µM): 0.0858
viability ([1]; 0.2 µM): 0.0855
viability ([2]; 0.00032 µM): 0.923
viability ([2]; 0.0016 µM): 0.968
viability ([2]; 0.008 µM): 0.0338
viability ([2]; 0.04 µM): 0.0187
viability ([2]; 0.2 µM): 0.0209
viability ([3]; 0.00032 µM): 1.02
viability ([3]; 0.0016 µM): 0.878
viability ([3]; 0.008 µM): 0.111
viability ([3]; 0.04 µM): 0.0272
viability ([3]; 0.2 µM): 0.029
viability ([4]; 0.00032 µM): 0.88
viability ([4]; 0.0016 µM): 0.789
viability ([4]; 0.008 µM): 0.353
viability ([4]; 0.04 µM): 0.269
viability ([4]; 0.2 µM): 0.222
viability ([5]; 0.00032 µM): 0.886
viability ([5]; 0.0016 µM): 0.0597
viability ([5]; 0.008 µM): 0.026
viability ([5]; 0.04 µM): 0.0248
viability ([5]; 0.2 µM): 0.0226
viability ([6]; 0.00032 µM): 1.07
viability ([6]; 0.0016 µM): 1.05
viability ([6]; 0.008 µM): 0.464
viability ([6]; 0.04 µM): 0.0458
viability ([6]; 0.2 µM): 0.045
viability ([7]; 0.00032 µM): 0.981
viability ([7]; 0.0016 µM): 0.941
viability ([7]; 0.008 µM): 0.524
viability ([7]; 0.04 µM): 0.145
viability ([7]; 0.2 µM): 0.072
viability ([8]; 0.00032 µM): 1
viability ([8]; 0.0016 µM): 0.911
viability ([8]; 0.008 µM): 0.477
viability ([8]; 0.04 µM): 0.127
viability ([8]; 0.2 µM): 0.0886
viability ([9]; 0.00032 µM): 0.935
viability ([9]; 0.0016 µM): 0.727
viability ([9]; 0.008 µM): 0.507
viability ([9]; 0.04 µM): 0.373
viability ([9]; 0.2 µM): 0.345
viability ([10]; 0.00032 µM): 0.932
viability ([10]; 0.0016 µM): 0.817
viability ([10]; 0.008 µM): 0.222
viability ([10]; 0.04 µM): 0.175
viability ([10]; 0.2 µM): 0.194
viability ([11]; 0.00032 µM): 0.91
viability ([11]; 0.0016 µM): 0.807
viability ([11]; 0.008 µM): 0.0756
viability ([11]; 0.04 µM): 0.055
viability ([11]; 0.2 µM): 0.073
viability ([12]; 0.00032 µM): 0.978
viability ([12]; 0.0016 µM): 0.911
viability ([12]; 0.008 µM): 0.642
viability ([12]; 0.04 µM): 0.498
viability ([12]; 0.2 µM): 0.527
viability ([13]; 0.00032 µM): 1.02
viability ([13]; 0.0016 µM): 0.895
viability ([13]; 0.008 µM): 0.738
viability ([13]; 0.04 µM): 0.772
viability ([13]; 0.2 µM): 0.758
viability ([14]; 0.00032 µM): 0.976
viability ([14]; 0.0016 µM): 0.947
viability ([14]; 0.008 µM): 0.283
viability ([14]; 0.04 µM): 0.0359
viability ([14]; 0.2 µM): 0.0368
viability ([15]; 0.00032 µM): 1.06
viability ([15]; 0.0016 µM): 0.614
viability ([15]; 0.008 µM): 0.264
viability ([15]; 0.04 µM): 0.188
viability ([15]; 0.2 µM): 0.184
viability ([16]; 0.00032 µM): 0.992
viability ([16]; 0.0016 µM): 0.651
viability ([16]; 0.008 µM): 0.365
viability ([16]; 0.04 µM): 0.295
viability ([16]; 0.2 µM): 0.315
viability ([17]; 0.00032 µM): 1.02
viability ([17]; 0.0016 µM): 0.614
viability ([17]; 0.008 µM): 0.308
viability ([17]; 0.04 µM): 0.24
viability ([17]; 0.2 µM): 0.199

O=C(O)CSc1cc(NS(=O)(=O)c2ccc(Br)cc2)c2ccccc2c1O [UMI-77]
viability ([1]; 0.024 µM): 0.244
viability ([1]; 0.12 µM): 0.291
viability ([1]; 0.6 µM): 0.291
viability ([1]; 3 µM): 0.316
viability ([1]; 15 µM): 0.158
viability ([2]; 0.024 µM): 1.06
viability ([2]; 0.12 µM): 1.05
viability ([2]; 0.6 µM): 0.974
viability ([2]; 3 µM): 0.963
viability ([2]; 15 µM): 0.701
viability ([3]; 0.024 µM): 0.995
viability ([3]; 0.12 µM): 1.02
viability ([3]; 0.6 µM): 0.846
viability ([3]; 3 µM): 0.908
viability ([3]; 15 µM): 0.595
viability ([4]; 0.024 µM): 0.839
viability ([4]; 0.12 µM): 0.917
viability ([4]; 0.6 µM): 0.971
viability ([4]; 3 µM): 0.961
viability ([4]; 15 µM): 0.623
viability ([6]; 0.024 µM): 1.1
viability ([6]; 0.12 µM): 1.13
viability ([6]; 0.6 µM): 1.04
viability ([6]; 3 µM): 1.03
viability ([6]; 15 µM): 0.73
viability ([18]; 0.024 µM): 0.894
viability ([18]; 0.12 µM): 0.94
viability ([18]; 0.6 µM): 0.853
viability ([18]; 3 µM): 0.973
viability ([18]; 15 µM): 0.891
viability ([8]; 0.024 µM): 1.07
viability ([8]; 0.12 µM): 1.04
viability ([8]; 0.6 µM): 0.979
viability ([8]; 3 µM): 1.01
viability ([8]; 15 µM): 0.467
viability ([9]; 0.024 µM): 0.457
viability ([9]; 0.12 µM): 0.654
viability ([9]; 0.6 µM): 0.618
viability ([9]; 3 µM): 0.47
viability ([9]; 15 µM): 0.227
viability ([10]; 0.024 µM): 0.968
viability ([10]; 0.12 µM): 0.986
viability ([10]; 0.6 µM): 0.955
viability ([10]; 3 µM): 0.929
viability ([10]; 15 µM): 0.331
viability ([11]; 0.024 µM): 1.11
viability ([11]; 0.12 µM): 1.11
viability ([11]; 0.6 µM): 0.994
viability ([11]; 3 µM): 1.07
viability ([11]; 15 µM): 0.778
viability ([12]; 0.024 µM): 0.936
viability ([12]; 0.12 µM): 0.937
viability ([12]; 0.6 µM): 0.923
viability ([12]; 3 µM): 0.876
viability ([12]; 15 µM): 0.256
viability ([13]; 0.024 µM): 0.976
viability ([13]; 0.12 µM): 0.968
viability ([13]; 0.6 µM): 0.91
viability ([13]; 3 µM): 0.948
viability ([13]; 15 µM): 0.815
viability ([14]; 0.024 µM): 0.934
viability ([14]; 0.12 µM): 0.984
viability ([14]; 0.6 µM): 0.919
viability ([14]; 3 µM): 0.812
viability ([14]; 15 µM): 0.329
viability ([17]; 0.024 µM): 0.914
viability ([17]; 0.12 µM): 0.914
viability ([17]; 0.6 µM): 0.802
viability ([17]; 3 µM): 0.571
viability ([17]; 15 µM): 0.0548
